Test results from PubChem BioAssay AID2792 (Sanford-Burnham Center for Chemical Genomics, 2010).
Activity calls are given as the source filed them. The rule behind the calls is not given here.

Each compound was assayed on NF-kappaB luciferase reporter cells, PMA/ionomycin induced (assay: inhibitors of PMA/ionomycin-induced NF-kB reporter, SAR follow-up, cell-based, PMA/ionomycin inducer, luciferase, set 2 (AID 2792)).

| Compound | IC50 |
| --- | --- |
| C=CCn1c(SCCCc2ccccc2)nc2c1c(=O)[nH]c(=O)n2C | > 25 µM (inactive) |
| COCCn1c(SCCCc2ccccc2)nc2c1c(=O)[nH]c(=O)n2C | > 25 µM (inactive) |
| Cn1c(=O)[nH]c(=O)c2c1nc([N+](=O)[O-])n2Cc1ccccc1 | > 25 µM (inactive) |
| C/C=C/Cn1c(SCCCc2ccccc2)nc2c1c(=O)[nH]c(=O)n2C | > 25 µM (inactive) |
| CCCn1c(SCCc2ccccc2)nc2c1c(=O)[nH]c(=O)n2C | > 25 µM (inactive) |
| CC(C)n1c(SCCCc2ccccc2)nc2c1c(=O)[nH]c(=O)n2C | > 25 µM (inactive) |
| Nc1nc2ccccc2n1CCOc1ccc(Cl)cc1 | > 25 µM (inactive) |
| CCCCn1c(SCC(=O)c2ccccc2)nc2c1c(=O)[nH]c(=O)n2C | > 25 µM (inactive) |

Further lines, results first:

| IC50 | Compound |
| --- | --- |
| > 25 µM (inactive) | C/C(Cl)=C\Cn1c(NCCc2ccccc2)nc2c1c(=O)n(C)c(=O)n2C |
| > 25 µM (inactive) | C/C=C/Cn1c(SCc2ccc(Cl)cc2)nc2c1c(=O)[nH]c(=O)n2C |
| > 25 µM (inactive) | CC(C)Sc1nc2c(c(=O)[nH]c(=O)n2C)n1Cc1ccccc1 |
| > 25 µM (inactive) | CCCCCn1c(SCCc2ccccc2)nc2c1c(=O)[nH]c(=O)n2C |
| > 25 µM (inactive) | C/C=C/Cn1c(SCc2ccccc2)nc2c1c(=O)[nH]c(=O)n2C |
| > 25 µM (inactive) | CCCCn1c(SCC(=O)Nc2nnc(CC)s2)nc2c1c(=O)n(C)c(=O)n2C |
